Assay results reported in ChEMBL document CHEMBL1149145, “Synthesis and selective inhibitory activity of 1-acetyl-3,5-diphenyl-4,5-dihydro-(1H)-pyrazole derivatives against monoamine oxidase” (J Med Chem, 2004).

Tests used:
[1] = target: Amine oxidase [flavin-containing] B (Bos taurus) (UniProt P56560); assay: Inhibition of bovine monoamine oxidase B
[2] = target: Amine oxidase [flavin-containing] A (Bos taurus) (UniProt P21398); assay: Inhibition of bovine monoamine oxidase A
[3] = target: Monoamine oxidase (Bos taurus); assay: Inhibition of bovine monoamine oxidase
[4] = target: Amine oxidase [flavin-containing] B (Bos taurus) (UniProt P56560); assay: Binding affinity was evaluated against bovine monoamino oxidase B
[5] = target: Amine oxidase [flavin-containing] A (Bos taurus) (UniProt P21398); assay: Binding affinity was evaluated against bovine monoamino oxidase A

Amine oxidase [flavin-containing] B (Bos taurus), sequence (P56560 whole entry, looked up): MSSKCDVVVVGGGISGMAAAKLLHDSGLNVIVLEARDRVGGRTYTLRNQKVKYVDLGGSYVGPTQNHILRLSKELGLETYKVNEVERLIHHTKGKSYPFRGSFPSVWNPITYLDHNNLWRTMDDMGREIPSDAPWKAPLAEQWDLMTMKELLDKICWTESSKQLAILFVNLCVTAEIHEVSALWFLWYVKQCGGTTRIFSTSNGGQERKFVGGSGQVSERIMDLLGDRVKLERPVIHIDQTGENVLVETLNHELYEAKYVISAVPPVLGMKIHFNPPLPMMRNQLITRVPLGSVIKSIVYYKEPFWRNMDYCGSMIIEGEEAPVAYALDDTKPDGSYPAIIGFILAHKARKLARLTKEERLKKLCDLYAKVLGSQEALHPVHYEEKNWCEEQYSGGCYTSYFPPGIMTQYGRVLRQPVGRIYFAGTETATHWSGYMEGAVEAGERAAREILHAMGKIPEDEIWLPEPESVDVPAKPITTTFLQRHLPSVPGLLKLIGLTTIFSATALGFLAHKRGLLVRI

Row | SMILES | IC50 [1] | IC50 [2] | IC50 [3] | Ki [4] | Ki [5]
1 | COc1ccc(C2CC(c3ccc(O)cc3O)=NN2C(C)=O)cc1 (stereo not drawn) | 83 µM | 0.009 µM | 10 µM |  | 
2 | CC(=O)N1N=C(c2ccc(O)cc2)CC1c1ccc(C)cc1 (stereo not drawn) | 30 µM | 0.1 µM | 0.2 µM |  | 
3 | CC(=O)N1N=C(c2ccc(O)cc2)CC1c1cccc(Cl)c1 (stereo not drawn) | 25 µM | 0.01 µM | 12 µM |  | 
4 | CC(=O)N1N=C(c2ccc(O)cc2)CC1c1cccc(C)c1 (stereo not drawn) | 19 µM | 0.008 µM | 9.5 µM |  | 
5 | CC(=O)N1N=C(c2ccc(O)cc2O)CC1c1ccc(Cl)cc1 (stereo not drawn) | 120 µM | 0.01 µM | 20 µM |  | 
6 | CC(=O)N1N=C(c2ccc(O)cc2O)CC1c1ccc(C)cc1 (stereo not drawn) | 42 µM | 0.009 µM | 9.5 µM |  | 
7 | CC(=O)N1N=C(c2ccc(O)cc2)CC1c1ccccc1Cl (stereo not drawn) | 89 µM | 0.0086 µM | 50 µM |  | 
8 | COc1ccc(C2CC(c3ccc(O)cc3)=NN2C(C)=O)c(OC)c1 (stereo not drawn) | 20 µM | 0.01 µM | 10 µM |  | 
9 | COc1ccc(C2CC(c3ccc(O)cc3)=NN2C(C)=O)cc1 (stereo not drawn) | 7.2 µM | 0.009 µM | 3.6 µM |  | 
10 | CC(=O)N1N=C(c2ccc(O)cc2)CC1c1ccc(Cl)cc1 (stereo not drawn) | 40 µM | 0.1 µM | 40 µM |  | 
11 | COc1ccccc1C1CC(c2ccc(O)cc2O)=NN1C(C)=O (single isomer, unassigned; (+)) |  |  |  | 270 µM | 0.007 µM
12 | COc1ccccc1C1CC(c2ccc(O)cc2)=NN1C(C)=O (single isomer, unassigned; (-)) |  |  |  | 330 µM | 0.002 µM
13 | COc1ccccc1C1CC(c2ccc(O)cc2O)=NN1C(C)=O (single isomer, unassigned; (-)) |  |  |  | 320 µM | 0.004 µM
14 | COc1ccccc1C1CC(c2ccc(O)cc2)=NN1C(C)=O (stereo in doubt; 6) | 100 µM | 0.0088 µM | 30 µM | 760 µM | 0.009 µM
15 | COc1ccccc1C1CC(c2ccc(O)cc2O)=NN1C(C)=O (stereo in doubt; 11) | 130 µM | 0.008 µM | 40 µM | 600 µM | 0.008 µM
16 | COc1ccccc1C1CC(c2ccc(O)cc2)=NN1C(C)=O (stereo in doubt; (+)-6) |  |  |  | 1000 µM | 0.006 µM
